Assay results from PubChem BioAssay (NCI).
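Compound exposure: 48 hours, 5 concentrations, 96-well plates. TGI denotes the concentration required for complete inhibition of growth.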

Experiments:
Test in all cases: NCI-60 cell line screen, 48 h
DMS 114 small cell lung = system: DMS 114 small cell lung
M19-MEL melanoma = system: M19-MEL melanoma
SNB-75 CNS = system: SNB-75 CNS
IGROV1 ovarian = system: IGROV1 ovarian
U251 CNS = system: U251 CNS
RPMI-8226 leukemia = system: RPMI-8226 leukemia
UACC-62 melanoma = system: UACC-62 melanoma
RXF-631 renal = system: RXF-631 renal
HCT-116 colon = system: HCT-116 colon
SK-MEL-28 melanoma = system: SK-MEL-28 melanoma
DMS 273 small cell lung = system: DMS 273 small cell lung
MOLT-4 leukemia = system: MOLT-4 leukemia
XF 498 CNS = system: XF 498 CNS
NCI-H460 lung = system: NCI-H460 lung
KM20L2 colon = system: KM20L2 colon
HL-60(TB) leukemia = system: HL-60(TB) leukemia
786-0 renal = system: 786-0 renal
DLD-1 colon = system: DLD-1 colon
SK-MEL-2 melanoma = system: SK-MEL-2 melanoma
SW-620 colon = system: SW-620 colon
HT29 colon = system: HT29 colon
LOX IMVI melanoma = system: LOX IMVI melanoma
M14 melanoma = system: M14 melanoma
HOP-62 NSCLC = system: HOP-62 NSCLC
COLO 205 colon = system: COLO 205 colon
ACHN renal = system: ACHN renal
KM12 colon = system: KM12 colon
K-562 leukemia = system: K-562 leukemia
EKVX NSCLC = system: EKVX NSCLC
SK-OV-3 ovarian = system: SK-OV-3 ovarian
RXF 393 renal = system: RXF 393 renal
MALME-3M melanoma = system: MALME-3M melanoma
NCI-H23 lung = system: NCI-H23 lung
HCT-15 colon = system: HCT-15 colon
NCI-H522 lung = system: NCI-H522 lung
OVCAR-4 ovarian = system: OVCAR-4 ovarian
SF-295 CNS = system: SF-295 CNS
CAKI-1 renal = system: CAKI-1 renal
A549 NSCLC = system: A549 NSCLC
UACC-257 melanoma = system: UACC-257 melanoma
SNB-78 CNS = system: SNB-78 CNS
OVCAR-5 ovarian = system: OVCAR-5 ovarian
SNB-19 CNS = system: SNB-19 CNS
CCRF-CEM leukemia = system: CCRF-CEM leukemia
HOP-92 NSCLC = system: HOP-92 NSCLC
SF-539 CNS = system: SF-539 CNS
SF-268 CNS = system: SF-268 CNS
NCI-H226 lung = system: NCI-H226 lung
SR leukemia = system: SR leukemia
HCC-2998 colon = system: HCC-2998 colon
TK-10 renal = system: TK-10 renal
UO-31 renal = system: UO-31 renal
LXFL 529 NSCLC = system: LXFL 529 NSCLC
SN12C renal = system: SN12C renal
SK-MEL-5 melanoma = system: SK-MEL-5 melanoma
OVCAR-8 ovarian = system: OVCAR-8 ovarian
A498 renal = system: A498 renal
HOP-18 NSCLC = system: HOP-18 NSCLC
OVCAR-3 ovarian = system: OVCAR-3 ovarian

Measured: TGI

CCOC(=O)c1ccc(O)cc1
not listed: LXFL 529 NSCLC | SN12C renal | SK-MEL-5 melanoma | OVCAR-8 ovarian | A498 renal | HOP-18 NSCLC | OVCAR-3 ovarian
> 100 µM: all other assays above

CCOC(=O)C(C(=O)OCC)P(=S)(S)c1ccccc1 (configuration not stated)
not listed: SNB-75 CNS | RPMI-8226 leukemia | HCT-116 colon | M14 melanoma | HCT-15 colon | SNB-78 CNS | HCC-2998 colon | HOP-18 NSCLC | OVCAR-3 ovarian
> 100 µM: all other assays above

CCOC(=O)C(/C(=N/NC(=O)OC)C(=O)Nc1ccc(C(C)=O)cc1)c1cnc2ccccc2n1 (configuration not stated)
not listed: RPMI-8226 leukemia | DMS 273 small cell lung | MOLT-4 leukemia | SK-MEL-2 melanoma
> 100 µM: all other assays above
